The record followed here is US7163924B2, “Ketolide derivatives” (Chiron Corporation, priority 2003, dated 2007).

A word on the AUC: it is concentration integrated over time. Low readings indicate low exposure, high ones high exposure. One may read the bioavailability as the share of a dose that reaches the circulation, judged against a reference dose that is usually intravenous.

Read-outs that look alike come from different tables or passages of the source.

This series in a line: In vivo pharmacokinetic studies of pyridyl substituted ketolides in rats (plasma and whole lung, LC-MS-MS). The settings on record: male Sprague-Dawley rats; for clearance / Vd / AUC / bioavailability / half-life / Kp: rat; for clearance / Vd: IV = 5 mg/kg, PO = 15 mg/kg; for clearance: read-out: CL (clearance of the compound from plasma); for Vd: read-out: Vss (volume of distribution); for bioavailability: read-out: F, PO (% bioavailability); for Kp: whole lung vs plasma, read-out: L/P ratio, IV (ratio of drug in lung/plasma after IV dosing). On the procedure:
Animal Models. A total of 54 male Sprague-Dawley rats, weighing 200 grams in average, are evaluated for pharmacokinetic studies of representative substituted pyridyl ketolides. Rats are under overnight food restriction and receive water ad libitum. Rats are acclimated for approximately 5 days before antibiotic administration. Antibiotic Administration. Rats are given bolus administration through intravenous (IV) and oral (PO) routes. Representative substituted pyridyl ketolides and telithromycin, for comparison, are diluted in 0.85% saline to a concentration of 15.0 mg/ml, and the resulting pH is adjusted using 1N acetic acid until the compound is in solution. Approximately 200 μl of the compound solution is administered to the rats. The target dose for IV and PO administration is 5 mg/kg and 15 mg/kg, respectively. Sample Collection. Plasma and whole lung samples are collected from the rats. Plasma samples are obtained from blood samples by centrifugation at 3000 RPM for 10 min. Heparin is added in the plasma as an anticoagulant. Whole lung samples are homogenized in deionized water. Samples are stored at −80° C. A total of 9 time points are collected in triplicate at 0.083, 0.25, 0.5, 1, 2, 4, 6, 8, and 24 h. Ketolide concentrations in plasma and lung are determined by well-established non-GLP LC-MS-MS methods. PK parameters are estimated from the raw bioanalytical data using WinNolin software (Version 4.0, Pharsight Corporation, CA). All representative compounds are compared to telithromycin.

Where [1] appears, read: plasma, PO 15 mg/kg vs IV 5 mg/kg.
[2] abbreviates: IV bolus 5 mg/kg, plasma, read-out: t1/2, IV Plasma (converted).
Setting [3] is: PO 15 mg/kg, plasma, read-out: t1/2, PO Plasma (converted).

Turning to `CC[C@H]1OC(=O)[C@H](C)C(=O)[C@H](C)[C@@H](O[C@@H]2O[C@H](C)C[C@H](N(C)C)[C@H]2O)[C@@](C)(OC)C[C@@H](C)C(=O)[C@H](C)[C@H]2N(CCCCn3cnc(-c4ccc(C)nc4)c3)C(=O)O[C@]12C` [Cmpd B], the clearance (plasma) amounted to 48 mL/min/kg. In addition, the Vd (plasma) came to 6.5 L/kg. Besides, the AUC (plasma, IV bolus 5 mg/kg) was 1700 ng·h/mL. In addition, under setting [1], the bioavailability was found to be 54%. Also, the half-life is 1.8 h under setting [2] and 3.3 h under setting [3]. Further, the Kp (IV bolus 5 mg/kg) was 27.
`CC[C@H]1OC(=O)[C@H](C)C(=O)[C@H](C)[C@@H](OC2O[C@H](C)C[C@H](N(C)C)[C@H]2O)[C@@](C)(OC)C[C@@H](C)C(=O)[C@H](C)[C@H]2N(CCCCn3cnc(-c4ccc(OC)nc4)c3)C(=O)O[C@]12C` (some centres unmarked) [Cmpd D]: for the setting “plasma”, the clearance amounted to 25 mL/min/kg and the Vd came out at 4.3 L/kg. Further, for the setting “plasma, IV bolus 5 mg/kg”, the AUC worked out at 3000 ng·h/mL. Further, under setting [1], the bioavailability worked out at 100%. Also, the half-life under setting [2] was 2.1 h. Besides, the Kp (IV bolus 5 mg/kg) came out at 32.
In the case of `CC[C@H]1OC(=O)[C@H](C)C(=O)[C@H](C)[C@@H](O[C@@H]2O[C@H](C)C[C@H](N(C)C)[C@H]2O)[C@@](C)(OC)C[C@@H](C)C(=O)[C@H](C)[C@H]2N(CCCCn3cnc(-c4ccc(Cl)nc4)c3)C(=O)O[C@]12C` [Cmpd E], for the setting “plasma”, the clearance was determined as 38 mL/min/kg and the Vd is 5.6 L/kg. The compound further showed an AUC (plasma, IV bolus 5 mg/kg) of 2200 ng·h/mL. The bioavailability under setting [1] was 86%. Under setting [2], the half-life was 1.6 h. The Kp (IV bolus 5 mg/kg) was determined as 29. Further, the half-life under setting [3] was 3.3 h.
Regarding `CC[C@H]1OC(=O)[C@H](C)C(=O)[C@H](C)[C@@H](O[C@@H]2O[C@H](C)C[C@H](N(C)C)[C@H]2O)[C@](C)(OC)C[C@@H](C)C(=O)[C@H](C)[C@H]2N(CCCCn3cnc(-c4cccnc4)c3)C(=O)O[C@]12C` [Telithromycin, telithromycin, reference compound], where the note is “IV bolus 5 mg/kg, plasma”, the “t1/2, IV Plasma” value is 1.0 h. Further, the “F, PO (% bioavailability)” value (PO 15 mg/kg vs IV 5 mg/kg) stood at 11%. Further, the “t1/2, PO Plasma” value (PO 15 mg/kg, plasma) is on record as 1.5 h. Also, for the setting “plasma”, the clearance is 100 mL/min/kg and the Vd was 5 L/kg. For the setting “IV bolus 5 mg/kg”, the Kp was found to be 16.
